# Test results reported in ChEMBL document CHEMBL4651402, “Screening of ~5500 FDA-approved drugs and clinical candidates for anti-SARS-CoV-2 activity” (2021).
# System: SARS-CoV-2
# Assay: microbe, parasite or virus in culture
# Conditions: Severe acute respiratory syndrome coronavirus 2, Vero C1008, 48 h
Compound,IC50 [µM],IC50 (read-out: pIC50 (converted)) [µM]
C[C@H](C(=O)O)c1ccc2cc(OCc3ccc4ccccc4n3)ccc2c1,> 20,> 20
CCOCC(O)COc1ccc(NC(=O)CC[S+](C)C)cc1 (stereo not given),> 20,> 20
C[C@H]1CN([C@H]2CC[C@](C#N)(c3ccc(F)cc3)CC2)CC[C@@]1(C(=O)O)c1ccccc1,> 20,> 20
CCN(CCNC(=O)Nc1ccccc1Br)c1cccc(C)c1,> 20,> 20
CC(=O)N[C@@H](CCC(N)=O)C(=O)O,> 20,> 20
CC(=O)OCC(=O)C1CCC2C3CC=C4CC(O)CCC4(C)C3CCC12C (stereo not given),> 20,> 20
O=c1cc(-c2ccc(O)cc2)oc2c(C3O[C@H](CO)[C@@H](O)[C@H](O)[C@H]3O)c(O)cc(O)c12 (stereo not given in full),> 20,> 20
CN1CC(=O)N2[C@@H](c3ccc4c(c3)OCO4)c3[nH]c4ccccc4c3C[C@@H]2C1=O,> 20,> 20
c1ccc2[nH]c(-c3nc4ccccc4[nH]3)nc2c1,> 20,> 20
COc1ccc2c3c1OC1C(O)C=CC4C(C2)[N+](C)(C)CCC341 (stereo not given),> 20,> 20
CN1CCCN=C1/C=C/c1cccs1,> 20,> 20
COCCCOc1cc(C[C@@H](C[C@H](N)[C@@H](O)C[C@H](C(=O)NCC(C)(C)C(N)=O)C(C)C)C(C)C)ccc1OC,> 20,> 20
COc1ccc2cc1Oc1cc3c(cc1OC)CC[N+](C)(C)C3Cc1ccc(cc1)Oc1c(OC)c(OC)cc3c1C(C2)[N+](C)(C)CC3 (stereo not given),> 20,> 20
Cc1cc(/C=C\C#N)cc(C)c1Nc1ccnc(Nc2ccc(C#N)cc2)n1,> 20,> 20
CC(C)(C)C(=O)Oc1ccc2c(c1)O[C@H](c1ccc(OCCN3CCCCC3)cc1)C1=C2COc2cc(OC(=O)C(C)(C)C)ccc21,> 20,> 20
Nc1nc(=O)n([C@@H]2O[C@H](CO)[C@@H](O)[C@H]2F)cc1I,> 20,> 20
C=C(C)CC1(CC)C(=O)NC(=S)NC1=O,> 20,> 20
C[C@]1(COc2ccc(N3CCC(Oc4ccc(OC(F)(F)F)cc4)CC3)cc2)Cn2cc([N+](=O)[O-])nc2O1,> 20,> 20
Cc1cn(C2CC(N=[N+]=[N-])C(CO)O2)c(=O)nc1N (stereo not given),> 20,> 20
O=C(O)c1cccc(-c2noc(-c3ccccc3F)n2)c1,> 20,> 20
N=C(N)c1ccc(CNC(=O)[C@@H]2CCN2C(=O)[C@H](NCC(=O)O)C2CCCCC2)cc1,> 20,> 20
NC(COCc1ccccc1)C(=O)O (stereo not given),> 20,> 20
CC(=O)N1CCN(c2ccc(OC[C@@H]3CO[C@](Cn4ccnc4)(c4ccc(Cl)cc4Cl)O3)cc2)CC1,> 20,> 20
COc1ccnc2[nH]cc(C(=O)C(=O)N3CCN(C(=O)c4ccccc4)C[C@H]3C)c12,> 20,> 20
CSc1ccc2ncn(/C=C/C(=O)O)c(=O)c2c1,> 20,> 20

Compound,IC50 [µM],IC50 (read-out: pIC50 (converted)) [µM]
Cc1c(-c2ccnn2C)cc(C(=O)NCc2ccc(S(C)(=O)=O)cn2)c(=O)n1-c1cccc(C(F)(F)F)c1,> 20,> 20
CN1C(=O)N(c2cc(Cl)cc(Cl)c2)C(=O)[C@@]1(C)Cc1ccc(Br)cc1,> 20,> 20
C[C@H]1c2nnn(-c3ncc(F)cn3)c2CCN1C(=O)c1cccc(C(F)(F)F)c1Cl,> 20,> 20
CN1CC[C@@H](c2c(O)cc(O)c3c(=O)cc(-c4ccccc4Cl)oc23)[C@@H]1CO,> 20,> 20
OCC(O)C(O)CO (stereo not given),> 20,> 20
CCOC(=O)C1=C(CN2CCOCC2)NC(c2nccs2)=N[C@@H]1c1ccc(F)cc1Br,> 20,> 20
O=C1C=CC(=O)c2c1ccc1c2ccc2ccccc21,> 20,> 20
CC(C(=O)Nc1ccc(Cl)cc1)[C@H]1CC[C@@H](c2ccnc3ccc(F)cc32)CC1 (stereo not given in full),> 20,> 20
CC1(C)CC[C@]2(C(=O)O)CC[C@]3(C)C(=CCC4[C@@]5(C)CC[C@@H](O)[C@@](C)(CO)C5CC[C@]43C)C2C1 (stereo not given in full),> 20,> 20
C=C1CC2C3C=C(C)C4=CC(=O)CCC4(C)C3CCC2(C)C1(OC(C)=O)C(C)=O (stereo not given),> 20,> 20
[2H]C([2H])([2H])O[C@@H]1CN(CCCOc2ccc(F)cc2)CC[C@@H]1NC(=O)c1cc(Cl)c(N)cc1OC,> 20,> 20
COc1cc(C)c2c(c1C=O)Oc1c(c(C)c(O)c3c1[C@H](O)OC3=O)OC2=O,> 20,> 20
[2H][C@]1(O)[C@@H](CO)O[C@@H](n2ccc(N)nc2=O)[C@]1(C)O,> 20,> 20
O=c1cccc2n1CC1CC2CN2CCCCC12 (stereo not given),> 20,> 20
CCC(CCC(C)C1CCC2C3CC=C4CC(OC(C)=O)CCC4(C)C3CCC12C)C(C)C (stereo not given),> 20,> 20
CCN1C[C@]2(COC)CC[C@H](O)[C@]34C5C[C@@H]6[C@@H](OC)C[C@@](O)(C5[C@H]6OC)[C@@](O)([C@H]13)[C@@H](OC)C24 (stereo not given in full),> 20,> 20
NC1=NC(=O)N(C2CC(O)C(CO)O2)CN1 (stereo not given),> 20,> 20
COc1cccc2c1C(=O)c1c(O)c3c(c(O)c1C2=O)CC(O)(/C(C)=N/NC(=O)c1ccccc1)CC3OC1CC(N)C(O)C(C)O1 (stereo not given),> 20,> 20
CC(O)C(=O)Nc1c(I)c(C(=O)NC(CO)CO)c(I)c(C(=O)NC(CO)CO)c1I (stereo not given),> 20,> 20
NC(=S)N/N=C/c1ccncc1,> 20,> 20
CC(C)(C)NC(=O)c1nn(-c2ccc(F)cc2F)c2c1C1CCC2C1 (stereo not given),> 20,> 20
CC(=O)OC1(C(C)=O)CCC2C3CC(C)C4=CCCCC4(C)C3CCC21C (stereo not given),> 20,> 20
C[C@H](COC(=O)[C@@H](N)Cc1ccc(O)c(O)c1)OC(=O)c1ccccc1,> 20,> 20
CC(C)(C)OC(=O)N1CCC[C@H]1CO,> 20,> 20
CCN(CC)C(=O)C1C=C2c3cccc4[nH]cc(c34)CC2N(C)C1 (stereo not given),> 20,> 20

Compound,IC50 [µM],IC50 (read-out: pIC50 (converted)) [µM]
COc1cc2nccc(Oc3ccc(NC(=O)c4cn(C(C)C)c(=O)n(-c5ccc(F)cc5)c4=O)cc3F)c2cc1OC,> 20,> 20
CC1(C)SCCN(S(=O)(=O)c2ccc(Oc3ccncc3)cc2)[C@@H]1C(=O)NO,> 20,> 20
C=C1[C@@H](C)[C@H]2[C@H](Cc3ccccc3)NC(=O)[C@]23OC(=O)/C=C\[C@H](O)CCC[C@@H](C)C/C=C\[C@H]3[C@@H]1O,> 20,> 20
O=C(Cn1c2ccccc2c2c(N3CCCC3)nc(N3CCCC3)nc21)N1CCCC1,> 20,> 20
COc1ccc2c3c1O[C@H]1[C@@H](O)C=C[C@@]4(O)[C@@H](C2)N(C)CC[C@]314,> 20,> 20
CN(C)N=Nc1ccc(C(=O)O)cc1,> 20,> 20
C=C[C@@H]1CN2CCC1C[C@@H]2[C@H](O)c1ccnc2ccccc12 (stereo not given in full),> 20,> 20
O=C1NC(=O)[C@H](c2cn3c4c(cccc24)CCC3)[C@H]1c1c[nH]c2ccccc12,> 20,> 20
C[14C](C)(c1ccc(O)cc1)c1ccc(O)cc1,> 20,> 20
CCC1(CC)C(=O)NC(=S)NC1=O,> 20,> 20
Cc1ccc([C@@]23Cn4cccc4C(=O)N2CCN3C(=O)c2conc2C)cn1,> 20,> 20
C/C(=C\C(=O)OCCCCCCCCC(=O)O)C[C@@H]1OC[C@H](C[C@@H]2O[C@H]2[C@H](C)[C@H](C)O)[C@@H](O)[C@@H]1O,> 20,> 20
CC(C(=O)O)C1CCC2C3CC=C4C[C@@H](O)CC[C@]4(C)C3CC[C@]12C (stereo not given in full),> 20,> 20
C[C@H](Oc1ccc2[nH]nc(/C=C/c3cnn(CCO)c3)c2c1)c1c(Cl)cncc1Cl,> 20,> 20
N=C(N)N1CCCC(CNC(=O)CC(NS(=O)(=O)c2ccc3ccccc3c2)C(=O)N(CC(=O)O)C2CC2)C1 (stereo not given),> 20,> 20
CCCCCCCCCCNCCN[C@@]1(C)C[C@H](O[C@H]2[C@H](Oc3c4cc5cc3Oc3ccc(cc3Cl)[C@H](O)[C@@H](NC(=O)[C@@H](CC(C)C)NC)C(=O)N[C@@H](CC(N)=O)C(=O)N[C@H]5C(=O)N[C@@H]3C(=O)N[C@H](C(=O)N[C@H](C(=O)O)c5cc(O)c(CNCP(=O)(O)O)c(O)c5-c5cc3ccc5O)[C@@H](O)c3ccc(c(Cl)c3)O4)O[C@H](CO)[C@@H](O)[C@@H]2O)O[C@@H](C)[C@H]1O,> 20,> 20
CC(C)[C@H](O)C(=O)N[C@@H](C)C(=O)N[C@@H]1C(=O)N(C)CCc2ccccc21,> 20,> 20
CC(C)(C)NC(=O)[C@@H]1CN(Cc2cccnc2)CCN1C[C@@H](O)C[C@@H](Cc1ccccc1)C(=O)N[C@H]1c2ccccc2C[C@H]1O,> 10,> 10
O=C(O)CCCN1CCC[C@H]1COc1ccc(Oc2ccc(Cl)cc2)cc1,> 20,> 20
NC(=O)Oc1ccc(Cc2ccccc2)cc1,> 20,> 20
CC(=O)Nc1cc2ccccc2oc1=O,> 20,> 20
Cc1cccc(Cl)c1C(=O)N[C@@H](Cc1ccc(NC(=O)c2c(Cl)cccc2Cl)cc1)C(=O)O,> 20,> 20
CCC(C)n1ncn(-c2ccc(N3CCN(c4ccc(OC[C@@H]5CO[C@@](Cn6cncn6)(c6ccc(Cl)cc6Cl)O5)cc4)CC3)cc2)c1=O (stereo not given in full),> 20,> 20
c1ccc2c(c1)CC[C@H](CNCCCNC1=NCCCN1)O2,> 20,> 20
C=C1CC[C@@]2(O)[C@H]3Cc4ccc(O)c5c4[C@@]2(CCN3CC2CC2)[C@H]1O5,> 20,> 20
